In the assay the test system is mice. In words: Neuropharmacological Assay (SmartCube). Type of assay: in vivo. The note with it: i.p. 15 min before behavioral test; 3 doses, most efficacious dose(s) presented.

On to `Cl.c1ccc2c3n(nc2c1)CCOC31CCNC1` (centres unmarked) [Compound 44, 3′,4′-dihydrospiro[pyrrolidine-3,1′-[1,4]oxazino[4,3-b]indazol]-1-ium chloride], for which the “AD: ADHD (probability of class match)” value is listed as “+ (LOQ≦ + <5%)”, the “AG: analgesic (probability of class match)” value is “++ (5%≦ ++ <25%)”, the “AX: anxiolytic (probability of class match)” value is “+++ (25%≦ +++ <50%)” and the “CE: cognitive enhancer (probability of class match)” value was “++ (5%≦ ++ <25%)”. The “DP: anti-depressant (probability of class match)” value is on record as “++ (5%≦ ++ <25%)”, the “HA: hallucinogen (probability of class match)” value is reported as “+ (LOQ≦ + <5%)”, the “MS: mood stabilizer (probability of class match)” value was “+ (LOQ≦ + <5%)” and the “PS: anti-psychotic (probability of class match)” value is given as “++ (5%≦ ++ <25%)”. In addition, the “SD: sedative hypnotic (probability of class match)” value is reported as “+ (LOQ≦ + <5%)”, the “UN: uncharacterized CNS activity (probability of class match)” value is recorded as “+ (LOQ≦ + <5%)” and the “XG: anxiogenic (probability of class match)” value is reported as “+ (LOQ≦ + <5%)”.
